Results reported in paper PMC10580313, “A Chemoproteomic Approach to Elucidate the Mechanism of Action of 6-Azasteroids with Unique Activity in Mycobacteria” (ACS Infectious Diseases, 2023).

What was measured:
Mm (BAA-535) = assay: BDQ potentiation MIC99 microbroth assay, Mm; type: cell-based, Mycobacterium marinum; conditions: for Fold ∆ of BDQ MIC, Mm: 6-azasteroid fixed at 20 μM, relative to BDQ MIC99 without azasteroid
THP-1 cells = assay: Cytotoxicity assay (Alamar Blue), THP-1; type: cell-based; conditions: 72 h, read-out: Mammalian Cell IC50, THP1
Mtb (CDC1551) = assay: BDQ potentiation MIC99 microbroth assay, Mtb; type: cell-based, Mycobacterium tuberculosis; conditions: 6-azasteroid fixed at 20 μM; relative to BDQ MIC99 without azasteroid
Mtb = assay: MIC of 6-azasteroid alone, Mtb; type: cell-based, Mycobacterium tuberculosis; conditions: (MIC99 reported as micromolar)
HepG2 cells = assay: Cytotoxicity assay (Alamar Blue), HepG2; type: cell-based, human; conditions: 72 h, read-out: Mammalian Cell IC50, HepG2
Mm = assay: MIC of 6-azasteroid alone, Mm; type: cell-based, Mycobacterium marinum; conditions: (micromolar)
[1] = biological target: T1, recombinant Mtb 3β-Hsd (Rv1106c) (Mycobacterium tuberculosis, UniProt P9WQP7); type: biochemical; conditions: 50 μM 6-azasteroid
T1 construct: made in house
T1 sequence (P9WQP7 whole entry): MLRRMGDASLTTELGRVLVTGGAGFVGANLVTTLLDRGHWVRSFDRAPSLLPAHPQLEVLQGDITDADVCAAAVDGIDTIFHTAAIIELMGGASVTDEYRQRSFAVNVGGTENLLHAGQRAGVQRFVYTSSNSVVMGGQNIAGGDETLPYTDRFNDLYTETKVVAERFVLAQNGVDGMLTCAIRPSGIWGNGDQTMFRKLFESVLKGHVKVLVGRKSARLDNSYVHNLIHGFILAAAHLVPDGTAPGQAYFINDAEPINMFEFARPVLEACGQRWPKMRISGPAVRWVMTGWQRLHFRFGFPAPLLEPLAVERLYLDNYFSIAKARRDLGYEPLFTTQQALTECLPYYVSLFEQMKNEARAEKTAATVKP

| Structure (SMILES) | IC50 (THP-1 cells) | Fold ∆ of BDQ MIC, Mtb (Mtb (CDC1551)) | Mtb MIC Alone (Mtb) | IC50 (HepG2 cells) | also measured |
| --- | --- | --- | --- | --- | --- |
| COc1nc2ccc(Br)cc2cc1[C@@H](c1ccccc1)[C@@](O)(CCN(C)C)c1cccc2ccccc12 [bedaquiline, reference compound] | – | – | – | – | MIC (Mm (BAA-535); Mycobacterium marinum, BAA535, read-out: Mm bedaquiline minimal inhibitory concentration, alone): 0.085 µM |
| CC(C)(C)c1ccc(C(C)(C)C)c(NC(=O)C2CCC3C4CNC5=CC(=O)CC[C@]5(C)C4CC[C@]23C)c1 (stereo partly drawn) [compound 1] | 17.7 µM | 16 fold | 40 µM | – | – |
| CC(C)(C)c1ccc(C(C)(C)C)c(NC(=O)C2CCC3C4CNC5CC(=O)CC[C@]5(C)C4CC[C@]23C)c1 (stereo partly drawn) [compound 3] | 14.2 µM | – | 10 µM | 16.9 µM | – |
| CCCN1CC2C3CCC(C(=O)Nc4cc(C(C)(C)C)ccc4C(C)(C)C)[C@@]3(C)CCC2[C@@]2(C)CCC(=O)CC12 (stereo partly drawn) [compound 4] | 73 µM | – | 20 µM | – | – |
| CC(C)(C)c1ccc(C(F)(F)F)cc1NC(=O)C1CCC2C3CNC4=CC(=O)CC[C@]4(C)C3CC[C@]12C (stereo partly drawn) [compound 5] | – | 2 fold | > 20 µM | 60 µM | – |
| CCCN1CC2C3CCC(C(=O)Nc4cc(C(F)(F)F)ccc4C(C)(C)C)[C@@]3(C)CCC2[C@@]2(C)CCC(=O)C=C12 (stereo partly drawn) [compound 6] | – | – | – | 71 µM | Fold ∆ of BDQ MIC, Mm (Mm (BAA-535)): 3 fold; MIC Alone (Mm) (Mm): > 20 µM |
| CC(C)(C)c1ccc(C(F)(F)F)cc1NC(=O)C1CCC2C3CNC4CC(=O)CC[C@]4(C)C3CC[C@]12C (stereo partly drawn) [compound 7] | – | – | 30 µM | 12.1 µM | – |
| C[C@]12CCC3C(CN(CCCF)C4=CC(=O)CC[C@@]43C)C1CCC2C(=O)Nc1cc(C(F)(F)F)ccc1C(F)(F)F (stereo partly drawn) [compound 8] | – | – | – | > 100 µM | Fold ∆ of BDQ MIC, Mm (Mm (BAA-535)): 7 fold; MIC Alone (Mm) (Mm): > 20 µM |
| C[C@]12CCC3C(CN(CCC(F)(F)F)C4=CC(=O)CC[C@@]43C)C1CCC2C(=O)Nc1cc(C(F)(F)F)ccc1C(F)(F)F (stereo partly drawn) [compound 9] | – | – | – | > 100 µM | Fold ∆ of BDQ MIC, Mm (Mm (BAA-535)): 4 fold; MIC Alone (Mm) (Mm): > 20 µM |
| C[C@]12CCC(=O)CC1NCC1C2CC[C@]2(C)C(C(=O)Nc3cc(Br)ccc3Br)CCC12 (stereo partly drawn) [compound 10] | – | – | 30 µM | 7.6 µM | – |
| C[C@]12CCC(=O)CC1NCC1C2CC[C@]2(C)C(C(=O)NC34CC5CC(CC(C5)C3)C4)CCC12 (stereo partly drawn) [compound 11] | – | – | > 80 µM | 89.3 µM | Fold ∆ of BDQ MIC, Mm (Mm (BAA-535)): 6 fold |
| C[C@]12CCC3C(CNC4=CC(=O)CC[C@@]43C)C1CCC2C(=O)NC(c1ccc(F)cc1)c1ccc(F)cc1 (stereo partly drawn) [compound 12] | 24.2 µM | 32 fold | 31 µM | 31.4 µM | Fold ∆ of BDQ MIC, Mm (Mm (BAA-535)): 7 fold |
| CCCN1CC2C3CCC(C(=O)NC(c4ccc(F)cc4)c4ccc(F)cc4)[C@@]3(C)CCC2[C@@]2(C)CCC(=O)C=C12 (stereo partly drawn) [compound 13] | – | 128 fold | > 20 µM | > 100 µM | – |
| C[C@]12CCC(=O)CC1NCC1C2CC[C@]2(C)C(C(=O)NC(c3ccc(F)cc3)c3ccc(F)cc3)CCC12 (stereo partly drawn) [compound 14] | – | – | 80 µM | 14.2 µM | – |
| C[C@]12CCC3C(CNC4=CC(=O)CC[C@@]43C)C1CCC2C(=O)NC(c1ccc(F)cc1)c1ccc(C(F)(F)F)cc1 (stereo partly drawn) [compound 15] | – | 64 fold | > 20 µM | 26 µM | – |
| CCCN1CC2C3CCC(C(=O)NC(c4ccc(F)cc4)c4ccc(C(F)(F)F)cc4)[C@@]3(C)CCC2[C@@]2(C)CCC(=O)C=C12 (stereo partly drawn) [compound 16] | – | 64 fold | > 20 µM | – | inhibition of 3β-Hsd activity [1]: greater than 50% |
| C[C@]12CCC(=O)CC1NCC1C2CC[C@]2(C)C(C(=O)NC(c3ccc(F)cc3)c3ccc(C(F)(F)F)cc3)CCC12 (stereo partly drawn) [compound 17] | 15.6 µM | – | 20 µM | 10.1 µM | – |
| C[C@]12CCC3C(CNC4=CC(=O)CC[C@@]43C)C1CCC2C(=O)NC(c1ccncc1)c1ccc(F)cc1 (stereo partly drawn) [compound 18] | – | 4 fold | 15 µM | > 100 µM | – |
| C[C@]12CCC3C(CNC4=CC(=O)CC[C@@]43C)C1CCC2C(=O)NC(c1ccc(F)cc1)c1ccc(OC(F)(F)F)cc1 (stereo partly drawn) [compound 19] | – | 32-64 fold | > 20 µM | 58.4 µM | – |
| C[C@]12CCC(=O)CC1NCC1C2CC[C@]2(C)C(C(=O)NC(c3ccc(F)cc3)c3ccc(OC(F)(F)F)cc3)CCC12 (stereo partly drawn) [compound 20] | – | > 32 fold | > 20 µM | 5.7 µM | – |
| C[C@]12CCC(O)CC1NCC1C2CC[C@]2(C)C(C(=O)NC(c3ccc(F)cc3)c3ccc(OC(F)(F)F)cc3)CCC12 (stereo partly drawn) [compound 21] | – | > 32 fold | > 20 µM | – | – |

| Structure (SMILES) | IC50 (THP-1 cells) | Fold ∆ of BDQ MIC, Mtb (Mtb (CDC1551)) | Mtb MIC Alone (Mtb) | IC50 (HepG2 cells) | also measured |
| --- | --- | --- | --- | --- | --- |
| C[C@]12CCC3C(CNC4=CC(=O)CC[C@@]43C)C1CCC2C(=O)NC(c1ccc(OC(F)F)cc1)c1ccc(OC(F)F)cc1 (stereo partly drawn) [compound 22] | 25.7 µM | > 32 fold | > 20 µM | – | – |
| C[C@]12CCC(=O)CC1NCC1C2CC[C@]2(C)C(C(=O)NC(c3ccc(OC(F)F)cc3)c3ccc(OC(F)F)cc3)CCC12 (stereo partly drawn) [compound 23] | 3.3 µM | – | 15 µM | – | – |
| CCCN1CC2C3CCC(C(=O)NC(c4ccc(OC(F)F)cc4)c4ccc(OC(F)F)cc4)[C@@]3(C)CCC2[C@@]2(C)CCC(=O)CC12 (stereo partly drawn) [compound 24] | > 100 µM | – | 60 µM | – | Fold ∆ of BDQ MIC, Mm (Mm (BAA-535)): 25.5 fold |
| C[C@]12CCC3C(CNC4=CC(=O)CC[C@@]43C)C1CCC2C(=O)NC(c1ccc(C(F)(F)F)cc1)c1ccc(C(F)(F)F)cc1 (stereo partly drawn) [compound 25] | – | 8 fold | 20 µM | 75.7 µM | – |
| C[C@]12CCC(=O)CC1NCC1C2CC[C@]2(C)C(C(=O)NC(c3ccc(C(F)(F)F)cc3)c3ccc(C(F)(F)F)cc3)CCC12 (stereo partly drawn) [compound 26] | – | – | 7.5 µM | 6 µM | – |
| CCCN1CC2C3CCC(C(=O)NC(c4ccc(C(F)(F)F)cc4)c4ccc(C(F)(F)F)cc4)[C@@]3(C)CCC2[C@@]2(C)CCC(=O)CC12 (stereo partly drawn) [compound 27] | > 100 µM | 2 fold | 20 µM | – | – |
| C[C@]12CCC3C(CNC4=CC(=O)CC[C@@]43C)C1CCC2C(=O)NC(c1ccc(OC(F)(F)F)cc1)c1ccc(OC(F)(F)F)cc1 (stereo partly drawn) [compound 28] | 12.8 µM | > 32 fold | > 20 µM | – | – |
| C[C@]12CCC(=O)CC1NCC1C2CC[C@]2(C)C(C(=O)NC(c3ccc(OC(F)(F)F)cc3)c3ccc(OC(F)(F)F)cc3)CCC12 (stereo partly drawn) [compound 29] | 4.5 µM | – | 5 µM | – | – |
| C[C@]12CCC(N)CC1NCC1C2CC[C@]2(C)C(C(=O)NC(c3ccc(OC(F)(F)F)cc3)c3ccc(OC(F)(F)F)cc3)CCC12 (stereo partly drawn) [compound 30] | – | – | 80 µM | 2.7 µM | – |
| CC(=O)N1CC2C3CCC(C(=O)NC(c4ccc(OC(F)(F)F)cc4)c4ccc(OC(F)(F)F)cc4)[C@@]3(C)CCC2[C@@]2(C)CCC(=O)CC12 (stereo partly drawn) [compound 31] | – | 1 fold | > 80 µM | > 100 µM | Fold ∆ of BDQ MIC, Mm (Mm (BAA-535)): 3.5 fold |
| C[C@]12CCC(O)CC1NCC1C2CC[C@]2(C)C(C(=O)NC(c3ccc(OC(F)(F)F)cc3)c3ccc(OC(F)(F)F)cc3)CCC12 (stereo partly drawn) [compound 32] | – | – | 5 µM | 5.75 µM | – |
| CC12CCC(=O)C=C1CCC1C2CCC2(C)C(C(=O)NC(c3ccc(OC(F)(F)F)cc3)c3ccc(OC(F)(F)F)cc3)CCC12 (stereo not drawn) [compound 33] | – | 1 fold | > 80 µM | > 100 µM | – |
| CC12CCC(=O)CC1CCC1C2CCC2(C)C(C(=O)NC(c3ccc(OC(F)(F)F)cc3)c3ccc(OC(F)(F)F)cc3)CCC12 (stereo not drawn) [compound 34] | – | 1 fold | > 80 µM | > 100 µM | – |
| CCCN1CC2C3CCC(C(=O)NC(c4ccc(OC(F)(F)F)cc4)c4ccc(OC(F)(F)F)cc4)[C@@]3(C)CCC2[C@@]2(C)CCC(=O)C=C12 (stereo partly drawn) [compound 36] | > 100 µM | – | > 40 µM | – | Fold ∆ of BDQ MIC, Mm (Mm (BAA-535)): 1.6 fold |
| CN(C)CCN1CC2C3CCC(C(=O)NC(c4ccc(OC(F)(F)F)cc4)c4ccc(OC(F)(F)F)cc4)[C@@]3(C)CCC2[C@@]2(C)CCC(=O)CC12 (stereo partly drawn) [compound 37] | 4.1 µM | – | 5 µM | – | – |
| C[C@]12CCC3C(CN(CC4CC4)C4CC(=O)CC[C@]34C)C1CCC2C(=O)NC(c1ccc(OC(F)(F)F)cc1)c1ccc(OC(F)(F)F)cc1 (stereo partly drawn) [compound 38] | 10 µM | – | 80 µM | – | – |
| C[C@]12CCC3C(CN(CCCF)C4CC(=O)CC[C@]34C)C1CCC2C(=O)NC(c1ccc(OC(F)(F)F)cc1)c1ccc(OC(F)(F)F)cc1 (stereo partly drawn) [compound 41] | – | – | – | > 100 µM | Fold ∆ of BDQ MIC, Mm (Mm (BAA-535)): 5 fold; MIC Alone (Mm) (Mm): > 20 µM |
| C[C@]12CCC3C(CN(CCC(F)(F)F)C4CC(=O)CC[C@]34C)C1CCC2C(=O)NC(c1ccc(OC(F)(F)F)cc1)c1ccc(OC(F)(F)F)cc1 (stereo partly drawn) [compound 42] | – | – | – | > 100 µM | Fold ∆ of BDQ MIC, Mm (Mm (BAA-535)): 1 fold; MIC Alone (Mm) (Mm): > 20 µM |
| C[C@]12CCC3C(CNC4=CC(=O)CC[C@@]43C)C1CCC2C(=O)Nc1ccc(C(=O)c2ccccc2)cc1 (stereo partly drawn) [compound 43] | – | 8 fold | – | > 100 µM | Fold ∆ of BDQ MIC, Mm (Mm (BAA-535)): 2 fold; MIC Alone (Mm) (Mm): > 20 µM |
| C#CCCC(=O)Nc1ccc(C(=O)c2ccc(NC(=O)C3CCC4C5CNC6=CC(=O)CC[C@]6(C)C5CC[C@]34C)cc2)cc1 (stereo partly drawn) [compound 44, 17β-[N-[4-(4-Aminobenzoyl)phenyl]pent-4-ynamide]-6-azaandrost-4-en-3-one] | – | – | – | – | BDQ potentiation activity in Mm (Mm (BAA-535); photoaffinity probes): showed BDQ potentiation activity |
